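Results reflect a 48-hour exposure of cells in 96-well plates to compound at five concentrations. Here, GI50 denotes the concentration required for 50% inhibition of growth.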 Calls of active or inactive are those of the source. No stated cut-off is given here; in the data, active = GI50 up to about 1.1 µM and inactive = higher.
Assays:
Assay in all cases: inhibition of tumour cell growth, NCI panel, 48 h
[1] = system: HOP-62
[2] = system: NCI-H226
[3] = system: UACC-62
[4] = system: LOX IMVI
[5] = system: SK-MEL-2
[6] = system: SK-MEL-28
[7] = system: RXF 393
[8] = system: SNB-19
[9] = system: IGROV-1
[10] = system: HCC 2998
[11] = system: SF-295
[12] = system: MDA-MB-435
[13] = system: Malme-3M
[14] = system: KM12
[15] = system: Hs-578T
[16] = system: A498
[17] = system: NCI/ADR-RES
[18] = system: SW-620
[19] = system: HL-60
[20] = system: SF-539
[21] = system: U-251
[22] = system: HT-29
[23] = system: SK-OV-3
[24] = system: A549
[25] = system: RPMI-8226
[26] = system: M14
[27] = system: SR
[28] = system: SN12C
[29] = system: NCI-H23
[30] = system: ACHN
[31] = system: T47D
[32] = system: CCRF-CEM
[33] = system: UO-31
[34] = system: SF-268
[35] = system: 786-0
[36] = system: MOLT-4
[37] = system: PC-3
[38] = system: DU-145
[39] = system: COLO 205
[40] = system: MDA-MB-231
[41] = system: TK-10
[42] = system: EKVX
[43] = system: HCT-116
[44] = system: OVCAR-3
[45] = system: CAKI-1
[46] = system: UACC-257
[47] = system: BT-549
[48] = system: NCI-H522
[49] = system: HCT-15
[50] = system: MCF7
[51] = system: HOP-92
[52] = system: SNB-75
[53] = system: MDA-N
[54] = system: OVCAR-4
[55] = system: OVCAR-8
[56] = system: OVCAR-5
[57] = system: SK-MEL-5
[58] = system: K562
[59] = system: NCI-H460

For `CCC1(c2ccccc2)C(=O)N=C(c2ccccc2)N1CCc1ccccc1` (stereo unspecified), the GI50 [1] was > 100 µM (inactive), the GI50 [2] was > 100 µM (inactive) and the GI50 [3] was > 100 µM (inactive). For the same molecule, the GI50 [4] was > 100 µM (inactive), the GI50 [5] was > 100 µM (inactive) and the GI50 [6] was > 100 µM (inactive). The GI50 [7] was > 100 µM (inactive), the GI50 [8] was > 100 µM (inactive) and the GI50 [9] was > 100 µM (inactive). For the same molecule, the GI50 [10] was > 100 µM (inactive), the GI50 [11] was > 100 µM (inactive) and the GI50 [12] was > 100 µM (inactive). The GI50 [13] was > 100 µM (inactive), the GI50 [14] was > 100 µM (inactive) and the GI50 [15] was > 100 µM (inactive). For the same molecule, the GI50 [16] was > 100 µM (inactive), the GI50 [17] was > 100 µM (inactive) and the GI50 [18] was > 100 µM (inactive). For the same molecule, the GI50 [19] was > 100 µM (inactive), the GI50 [20] was > 100 µM (inactive) and the GI50 [21] was > 100 µM (inactive). For the same molecule, the GI50 [22] was > 100 µM (inactive), the GI50 [23] was > 100 µM (inactive) and the GI50 [24] was > 100 µM (inactive). The GI50 [25] was > 100 µM (inactive), the GI50 [26] was > 100 µM (inactive) and the GI50 [27] was > 100 µM (inactive). The GI50 [28] was > 100 µM (inactive), the GI50 [29] was > 100 µM (inactive) and the GI50 [30] was > 100 µM (inactive). For the same molecule, the GI50 [31] was > 100 µM (inactive), the GI50 [32] was > 100 µM (inactive) and the GI50 [33] was > 100 µM (inactive). The GI50 [34] was > 100 µM (inactive), the GI50 [35] was > 100 µM (inactive) and the GI50 [36] was > 100 µM (inactive). For the same molecule, the GI50 [37] was > 100 µM (inactive), the GI50 [38] was > 100 µM (inactive) and the GI50 [39] was > 100 µM (inactive). The GI50 [40] was > 100 µM (inactive), the GI50 [41] was > 100 µM (inactive) and the GI50 [42] was > 100 µM (inactive). The GI50 [43] was > 100 µM (inactive), the GI50 [44] was > 100 µM (inactive) and the GI50 [45] was > 100 µM (inactive). For the same molecule, the GI50 [46] was > 100 µM (inactive), the GI50 [47] was > 100 µM (inactive) and the GI50 [48] was > 100 µM (inactive). The GI50 [49] was > 100 µM, the GI50 [50] was > 100 µM (inactive) and the GI50 [51] was > 100 µM (inactive). The GI50 [52] was > 100 µM (inactive), the GI50 [53] was > 100 µM (inactive) and the GI50 [54] was > 100 µM (inactive). The GI50 [55] was > 100 µM (inactive), the GI50 [56] was > 100 µM (inactive) and the GI50 [57] was > 100 µM (inactive). For the same molecule, the GI50 [58] was > 100 µM (inactive).

`CCOC(=O)C1=C(C)N(C)C(=S)NC1c1cccc(O)c1` (stereo unspecified) was tested, and the GI50 [1] was 77.4 µM (inactive), the GI50 [2] was 47.9 µM (inactive) and the GI50 [3] was 63.7 µM (inactive). The GI50 [4] was 70.3 µM (inactive), the GI50 [5] was 34.3 µM (inactive) and the GI50 [6] was 49.1 µM (inactive). The GI50 [7] was 24.3 µM (inactive), the GI50 [8] was 54.3 µM (inactive) and the GI50 [9] was 21.1 µM (inactive). For the same molecule, the GI50 [10] was 34 µM (inactive), the GI50 [11] was 25.9 µM (inactive) and the GI50 [12] was 12.5 µM (inactive). The GI50 [14] was 29 µM (inactive), the GI50 [15] was 46.7 µM (inactive) and the GI50 [16] was 24.7 µM (inactive). The GI50 [17] was 18.7 µM (inactive), the GI50 [18] was 37.5 µM (inactive) and the GI50 [19] was 17.8 µM (inactive). The GI50 [20] was 53.2 µM (inactive), the GI50 [21] was 34.8 µM (inactive) and the GI50 [22] was 38.9 µM (inactive). The GI50 [23] was 36.4 µM (inactive), the GI50 [24] was 36.6 µM (inactive) and the GI50 [25] was 18.7 µM (inactive). For the same molecule, the GI50 [26] was 29.4 µM (inactive), the GI50 [27] was 16.9 µM (inactive) and the GI50 [28] was 31.8 µM (inactive). The GI50 [29] was 26.4 µM (inactive), the GI50 [30] was 71 µM (inactive) and the GI50 [31] was 18.7 µM (inactive). For the same molecule, the GI50 [32] was 21.4 µM (inactive), the GI50 [33] was 81.5 µM (inactive) and the GI50 [34] was 62.5 µM (inactive). For the same molecule, the GI50 [35] was 37.9 µM (inactive), the GI50 [36] was 37.8 µM (inactive) and the GI50 [37] was 38.5 µM (inactive). For the same molecule, the GI50 [38] was 57.3 µM (inactive), the GI50 [39] was 31.8 µM (inactive) and the GI50 [40] was 46.6 µM (inactive). For the same molecule, the GI50 [41] was > 100 µM (inactive), the GI50 [42] was 24.1 µM (inactive) and the GI50 [43] was 25.6 µM (inactive). For the same molecule, the GI50 [44] was 36.1 µM (inactive), the GI50 [45] was 56.6 µM (inactive) and the GI50 [46] was 43.3 µM (inactive). The GI50 [47] was 32.9 µM (inactive), the GI50 [48] was 25.2 µM (inactive) and the GI50 [49] was 30.3 µM. The GI50 [50] was 29.6 µM (inactive), the GI50 [51] was 22.9 µM (inactive) and the GI50 [52] was 24.7 µM (inactive). For the same molecule, the GI50 [53] was 14.6 µM (inactive), the GI50 [54] was 36.3 µM (inactive) and the GI50 [55] was 32.6 µM (inactive). For the same molecule, the GI50 [56] was 64.1 µM (inactive), the GI50 [57] was 18.5 µM (inactive) and the GI50 [59] was 38.2 µM (inactive). The GI50 [58] was 19.7 µM (inactive).
